According to patent publication US10729668B2, “Ketobutyrate compounds and compositions for treating age-related symptoms and diseases” (The Regents of the University of California, priority 2014, dated 2020):

Key:
Complex II = biological target: T1, Complex II (Mus musculus, UniProt Q8K2B3+Q9CQA3+Q9CXV1+Q9CZB0); assay: Complex II driven coupling assay, isolated liver mitochondria (succinate and rotenone); type: biochemical; conditions: succinate supplemented
T1 construct: Mitochondria were isolated from mouse liver as described earlier; from tissue; host or cells: liver mitochondria of 3-month-old C57BL/6 mice
T1 sequence (Q8K2B3 43-664): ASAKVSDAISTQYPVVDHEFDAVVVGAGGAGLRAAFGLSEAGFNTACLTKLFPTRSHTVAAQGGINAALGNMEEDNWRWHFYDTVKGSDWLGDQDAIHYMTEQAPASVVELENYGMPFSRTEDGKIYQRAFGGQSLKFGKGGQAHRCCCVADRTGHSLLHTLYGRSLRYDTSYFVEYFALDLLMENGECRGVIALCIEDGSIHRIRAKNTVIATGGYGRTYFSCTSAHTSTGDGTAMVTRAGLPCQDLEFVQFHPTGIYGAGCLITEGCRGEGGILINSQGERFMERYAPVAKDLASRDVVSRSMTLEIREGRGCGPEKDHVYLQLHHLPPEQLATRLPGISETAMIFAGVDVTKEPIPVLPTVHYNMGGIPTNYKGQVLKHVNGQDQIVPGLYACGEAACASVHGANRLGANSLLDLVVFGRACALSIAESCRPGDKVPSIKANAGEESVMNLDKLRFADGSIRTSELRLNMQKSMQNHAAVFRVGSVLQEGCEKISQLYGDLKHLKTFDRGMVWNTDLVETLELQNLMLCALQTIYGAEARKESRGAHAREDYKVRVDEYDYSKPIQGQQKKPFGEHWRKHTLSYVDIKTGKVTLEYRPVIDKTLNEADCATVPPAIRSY
T1 sequence (Q9CQA3 31-282): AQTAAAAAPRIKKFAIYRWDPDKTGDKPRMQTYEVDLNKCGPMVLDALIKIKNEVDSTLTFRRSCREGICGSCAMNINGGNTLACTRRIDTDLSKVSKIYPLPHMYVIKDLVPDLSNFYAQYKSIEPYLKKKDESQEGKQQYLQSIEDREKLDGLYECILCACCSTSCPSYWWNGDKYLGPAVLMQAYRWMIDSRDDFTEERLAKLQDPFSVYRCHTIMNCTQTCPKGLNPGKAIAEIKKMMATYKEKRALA
T1 sequence (Q9CZB0 30-169): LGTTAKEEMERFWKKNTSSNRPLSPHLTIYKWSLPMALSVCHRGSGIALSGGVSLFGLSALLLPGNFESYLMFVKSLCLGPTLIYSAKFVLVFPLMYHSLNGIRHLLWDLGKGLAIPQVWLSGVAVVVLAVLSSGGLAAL
T1 sequence (Q9CXV1 57-159): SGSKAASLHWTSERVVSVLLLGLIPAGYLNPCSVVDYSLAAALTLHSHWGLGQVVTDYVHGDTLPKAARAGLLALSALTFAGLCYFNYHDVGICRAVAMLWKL
Protocol: Animal studies were performed under approved UCLA animal research protocols. Mitochondria from 3-month-old C57BL/6 mice were isolated. Briefly, livers were extracted, minced at 4° C. in MSHE+BSA (70 mM sucrose, 210 mM mannitol, 5 mM HEPES, 1 mM EGTA, and 0.5% fatty acid free BSA, pH 7.2), and rinsed several times to remove blood. All subsequent steps were performed on ice or at 4° C. The tissue was disrupted in 10 volumes of MSHE+BSA with a glass Dounce homogenizer (5-6 strokes) and the homogenate was centrifuged at 800×g for 10 minutes to remove tissue debris and nuclei. The supernatant was decanted through a cell strainer and centrifuged at 8,000×g for 10 minutes. The dark mitochondrial pellet was resuspended in MSHE+BSA and re-centrifuged at 8,000×g for 10 minutes. The final mitochondrial pellet was resuspended in 30 μl of MAS buffer (70 mM sucrose, 220 mM mannitol, 10 mM KH2PO4, 5 mM MgCl2, 2 mM HEPES, 1 mM EGTA, and 0.2% fatty acid free BSA, pH 7.2). Isolated mitochondrial respiration was measured by running coupling and electron flow assays as described. […]
Mitochondrial respiration was measured by running coupling and electron flow assays. […]

NADH dehydrogenase = assay: Electron flow assay, isolated liver mitochondria; type: biochemical, mouse
Protocol: Animal studies were performed under approved UCLA animal research protocols. Mitochondria from 3-month-old C57BL/6 mice were isolated. Briefly, livers were extracted, minced at 4° C. in MSHE+BSA (70 mM sucrose, 210 mM mannitol, 5 mM HEPES, 1 mM EGTA, and 0.5% fatty acid free BSA, pH 7.2), and rinsed several times to remove blood. All subsequent steps were performed on ice or at 4° C. The tissue was disrupted in 10 volumes of MSHE+BSA with a glass Dounce homogenizer (5-6 strokes) and the homogenate was centrifuged at 800×g for 10 minutes to remove tissue debris and nuclei. The supernatant was decanted through a cell strainer and centrifuged at 8,000×g for 10 minutes. […] Isolated mitochondrial respiration was measured by running coupling and electron flow assays as described. […] After basal readings, the sequential injections were as follows: 2 μM rotenone (Complex I inhibitor), 10 mM succinate (Complex II substrate), 4 μM antimycin A (Complex III inhibitor), and 10 mM/100 μM ascorbate/tetramethylphenylenediamine (Complex IV substrate). […]

C2C12 Cells = assay: Oxygen consumption rate (OCR) in C2C12 cells, Seahorse XF-24; type: cell-based, mouse; conditions: 1 hour treatment
Protocol: Measurement of oxygen consumption rates (OCR). OCR measurements were made using a Seahorse XF-24 analyzer (Seahorse Bioscience). C2C12 Cells were seeded in Seahorse XF-24 cell culture microplates at 30,000 cells per well in DMEM media supplemented with 10% FBS and 10 mM glucose, and incubated at 37° C. and 5% CO2 overnight. Treatment with α-KB or DMSO (vehicle control) was for 1 hour. Cells were washed in unbuffered DMEM medium (pH 7.4, 10 mM glucose) just before measurements, and maintained in this buffer with indicated concentrations of α-KB. OCR was measured three times under basal conditions and normalized to protein concentration per well.

SMILES: C[C@@H](O)CC(=O)O [3-HB, (R)-3-hydroxybutyrate, reference compound]
- mitochondrial respiration, Complex II-driven coupling (Complex II): does not affect
- respiration in electron flow assay (NADH dehydrogenase): does not affect
- basal respiration (C2C12 Cells): does not have any effect
- maximal respiration (mitochondrial respiration upon FCCP treatment) (C2C12 Cells): does not have any effect
